Among the data in EP4737451A1 (Dong Wha Pharm. Co., Ltd., priority 2023, dated 2025) are IC50 and inhibition values, retold here.

One test concerns the target T1, IRAK4 enzyme (Homo sapiens, UniProt Q9NWZ3).
T1 construct: purchased Promega V2621
T1 sequence (Q9NWZ3 1-460): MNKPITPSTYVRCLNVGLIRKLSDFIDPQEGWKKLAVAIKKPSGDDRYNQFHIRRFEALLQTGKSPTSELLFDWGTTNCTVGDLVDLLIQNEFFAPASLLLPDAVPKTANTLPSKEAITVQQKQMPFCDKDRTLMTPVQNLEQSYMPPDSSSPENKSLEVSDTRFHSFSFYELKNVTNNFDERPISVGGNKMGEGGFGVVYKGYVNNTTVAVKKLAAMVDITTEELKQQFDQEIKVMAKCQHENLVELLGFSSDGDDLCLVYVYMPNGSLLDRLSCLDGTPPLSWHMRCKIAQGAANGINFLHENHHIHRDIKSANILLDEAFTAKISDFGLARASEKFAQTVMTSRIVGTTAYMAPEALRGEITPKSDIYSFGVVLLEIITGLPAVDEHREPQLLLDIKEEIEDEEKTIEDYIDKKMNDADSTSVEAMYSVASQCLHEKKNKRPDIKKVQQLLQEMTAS
Put plainly: IRAK4 enzyme activity inhibition (ADP-Glo, Promega kit). Type of test: biochemical. The settings on record: for inhibition at 0.1 µM: test compound 0.1 uM; for inhibition at 1 µM: test compound 1 uM. Here is the method: An experiment on IRAK4 enzyme activity inhibition of the compound of the present invention was conducted.
An IRAK4 enzyme kit (purchased from Promega, product number: V2621) was used to dilute a mixed solution between 0.1 µg/µL of myelin basic protein (MBP), which is an enzyme-reactive substrate, and 1.25 mM of ATP with a reaction buffer (40 mM Tris-HCl, pH 7.5; 20 mM MgCl2; 0.1 mg/mL BSA; 50 µM DTT) according to the instructions, so as to dispense 2 µL in a 384-well white plate, and then to add 1 µL of a test compound, which was gradient diluted starting from 1 mM, to a 384-well plate. After that, an IRAK4 enzyme was diluted with a reaction buffer to a final concentration of 5 ng/µL, then 2 µL/well was dispensed into a 384-well white plate and reacted at 37°C for 60 minutes. After completion of a reaction, an ADP-GloTM enzyme test kit (purchased from Promega, product number: V9102) was used to add 5 µL of ADP-Glo reaction reagent and cause a reaction at 37°C for 40 minutes, and then 10 µL of enzyme chromogenic reagent was added again to measure a luminescence signal using equipment for measuring absorbance (THECAN, Microplate Reader). An activity inhibition rate was calculated from a measured value, and a 50% inhibition concentration (IC50 value) was analyzed through a non-linear regression analysis based on the % inhibition for each concentration of the test compound, and is shown in Table 2.

The target in a further test is T2, IRAK1 enzyme (Homo sapiens, UniProt P51617).
T2 construct: purchased Promega VA7477
T2 sequence (P51617 whole entry): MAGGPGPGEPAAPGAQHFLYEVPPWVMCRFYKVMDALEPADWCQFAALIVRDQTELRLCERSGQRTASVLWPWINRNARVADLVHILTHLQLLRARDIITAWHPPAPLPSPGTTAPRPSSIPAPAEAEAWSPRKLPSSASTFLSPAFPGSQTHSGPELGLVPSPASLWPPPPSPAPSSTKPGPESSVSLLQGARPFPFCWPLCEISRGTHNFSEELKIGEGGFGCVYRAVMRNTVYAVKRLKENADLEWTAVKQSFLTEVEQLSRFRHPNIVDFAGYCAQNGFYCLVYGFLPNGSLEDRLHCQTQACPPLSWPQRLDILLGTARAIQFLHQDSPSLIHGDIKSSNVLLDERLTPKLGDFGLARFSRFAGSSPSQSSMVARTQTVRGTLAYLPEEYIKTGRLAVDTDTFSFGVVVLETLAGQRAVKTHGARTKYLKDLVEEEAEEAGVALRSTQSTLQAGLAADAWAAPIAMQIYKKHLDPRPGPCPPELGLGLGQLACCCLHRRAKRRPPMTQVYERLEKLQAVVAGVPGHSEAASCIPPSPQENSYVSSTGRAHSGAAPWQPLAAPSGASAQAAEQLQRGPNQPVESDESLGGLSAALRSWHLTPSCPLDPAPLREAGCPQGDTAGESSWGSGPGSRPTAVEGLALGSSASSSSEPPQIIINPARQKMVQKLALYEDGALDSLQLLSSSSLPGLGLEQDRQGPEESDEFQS
Nature of the test: IRAK1 enzyme activity inhibition (ADP-Glo, Promega kit). Type of test: biochemical. The settings on record: for inhibition at 0.1 µM: test compound 0.1 uM; for inhibition at 1 µM: test compound 1 uM. As to the method: An experiment on IRAK1 enzyme activity inhibition of the compound of the present invention was conducted.
An IRAK1 enzyme kit (purchased from Promega, product number: VA7477) was used to dilute a mixed solution between 0.1 µg/µL of protein kinase B (AKT), which is an enzyme-reactive substrate, and 1.25 mM of ATP with a reaction buffer (40 mM Tris-HCl, pH 7.5; 20 mM MgCl2; 0.1 mg/mL BSA; 50 µM DTT) according to the instructions, so as to dispense 2 µL in a 384-well white plate, and then to add 1 µL of a test compound, which was gradient diluted starting from 1 mM, to a 384-well white plate. After that, an IRAK1 enzyme was diluted with a reaction buffer to a final concentration of 5 ng/µL, then 2 µL/well was dispensed into a 384-well white plate and reacted at 37°C for 60 minutes. After completion of a reaction, an ADP-GloTM enzyme test kit (purchased from Promega, product number: V9102) was used to add 5 µL of ADP-Glo reaction reagent and cause a reaction at 37°C for 40 minutes, and then 10 µL of enzyme chromogenic reagent was added again to measure a luminescence signal using equipment for measuring absorbance (THECAN, Microplate Reader). An activity inhibition rate was calculated from a measured value, and a 50% inhibition concentration (IC50 value) was analyzed through a non-linear regression analysis based on the % inhibition for each concentration of the test compound, and is shown in Table 3.

On IRAK4 enzyme, `CC(C)(O)CCn1cc2cc(NC(=O)c3cccc(C(N)=O)c3)c(N3CCOCC3)cc2n1` [Example 25, N-(2-(3-hydroxy-3-methylbutyl)-6-morpholino-2H-indazol-5-yl)isophthalamide] registered an IC50 of 78.5 nM and an inhibition at 0.1 µM of 81.3%. Further, at IRAK1 enzyme, the inhibition at 0.1 µM stood at 24.9% and the inhibition at 1 µM turned out to be 54.6%.
The like results for `CC(C)(O)CCn1cc2cc(NC(=O)c3ccc(F)c([N+](=O)[O-])c3)c(N3CCOCC3)cc2n1` [Example 26, 4-fluoro-N-(2-(3-hydroxy-3-methylbutyl)-6-morpholino-2H-indazol-5-yl)-3-nitrobenzamide] were, in that order, 192 nM, 71.3%, 31.7% and 40.2%.
In turn, `CC(C)(O)CCn1cc2cc(NC(=O)c3cccc(-c4nccs4)c3)c(N3CCOCC3)cc2n1` [Example 27, N-(2-(3-hydroxy-3-methylbutyl)-6-morpholino-2H-indazol-5-yl)-3-(thiazol-2-yl)benzamide] registered an inhibition at 0.1 µM against IRAK4 enzyme of 57.3%. On IRAK1 enzyme, this molecule came in with an inhibition at 0.1 µM of 17.6% and an inhibition at 1 µM of 25.3%.
On IRAK4 enzyme, `CC(C)(O)CCn1cc2cc(NC(=O)c3cccc([N+](=O)[O-])c3)c(N3CCC(C(C)(C)O)CC3)cc2n1` [Example 30, N-(2-(3-hydroxy-3-methylbutyl)-6-(4-(2-hydroxypropan-2-yl)piperidin-1-yl)-2H-indazol-5-yl)-3-nitrobenzamide] showed a 50% inhibitory concentration (IC50) of 0.88 nM and an inhibition at 0.1 µM of 82.8%. For the same molecule, on IRAK1 enzyme, at 0.1 µM the inhibition was 8.6%.
On IRAK4 enzyme, `CC(C)(O)CCn1cc2cc(NC(=O)c3cccc(S(N)(=O)=O)c3)c(N3CCC(O)CC3)cc2n1` [Example 31, N-(2-(3-hydroxy-3-methylbutyl)-6-(4-hydroxypiperidin-1-yl)-2H-indazol-5-yl)-3-sulfamoylbenzamide] displayed an IC50 of 13.4 nM and an inhibition at 0.1 µM of 88%. On IRAK1 enzyme, this molecule gave an inhibition at 0.1 µM of 30.6% and an inhibition at 1 µM of 66.7%.
At IRAK4 enzyme, `CC(C)(O)CCn1cc2cc(NC(=O)c3cccc(C(N)=O)c3)c(N3CCSCC3)cc2n1` [Example 33, N-(2-(3-hydroxy-3-methylbutyl)-6-thiomorpholino-2H-indazol-5-yl)isophthalamide] had an IC50 of 22.1 nM, an inhibition at 0.1 µM of 71.3% and an inhibition at 1 µM of 95.6%. Further, at IRAK1 enzyme, the inhibition at 0.1 µM came to 24% and the inhibition at 1 µM worked out at 39.3%.
Take `O=C(Nc1cc2cn(CCN3CCOCC3)nc2cc1-c1ccc(F)cc1)c1cccc([N+](=O)[O-])c1` [Example 34, N-(6-(4-fluorophenyl)-2-(2-morpholinoethyl)-2H-indazol-5-yl)-3-nitrobenzamide]: the inhibition at 0.1 µM against IRAK4 enzyme was 69.4%; against IRAK1 enzyme it was 4.6%. Also, the inhibition at 1 µM on IRAK4 enzyme stood at 88.2%; on IRAK1 enzyme it was 17.4%.
Molecule `CC(C)(O)CCn1cc2cc(NC(=O)c3cccc([N+](=O)[O-])c3)c(-c3cccc(C(=O)N4CCOCC4)c3)cc2n1` [Example 35, N-(2-(3-hydroxy-3-methylbutyl)-6-(3-(morpholine-4-carbonyl)phenyl)-2H-indazol-5-yl)-3-nitrobenzamide] returned an inhibition at 0.1 µM against IRAK4 enzyme of 64.6%. Also, at IRAK1 enzyme, the inhibition at 0.1 µM stood at 33.1% and at 1 µM the inhibition was 60.8%.
For `CC(C)(O)CCn1cc2cc(NC(=O)c3cccc(-c4ccsc4)n3)c(N3CCOCC3)cc2n1` [Example 36, N-(2-(3-hydroxy-3-methylbutyl)-6-morpholino-2H-indazol-5-yl)-6-(thiophen-3-yl)picolinamide], in that order: 55.2%, 5.7% and 12.9%.
For `CC(C)(O)CCn1cc2cc(NC(=O)c3cccc([N+](=O)[O-])c3)c(-c3ccc(N4CCOCC4)cc3)cc2n1` [Example 37, N-(2-(3-hydroxy-3-methylbutyl)-6-(4-morpholinophenyl)-2H-indazol-5-yl)-3-nitrobenzamide], in that order: 52.2%, 26.3% and 31%.
